Literature values as cited in US20120142730A1 (priority 2010, published 2012).

Conditions: Noseworthy, 2000; cited from earlier work

CN(C(=O)c1c(O)c2ccccc2n(C)c1=O)c1ccccc1 [roquinimex]
Safety concerns previously seen: serositis, cardiovascular events and thrombosis
